The text below walks through data of patent US20190284640A1, “Methods and Systems for Predicting Response to Immunotherapies for Treatment of Cancer” (Vanderbilt University, priority 2018, published 2019).

Entries after “also recorded” stand apart in the source; their conditions may differ.

The test system of assay [1] is p53 altered MMTV-Neu cells. In words: Chemokine induction by doxorubicin in MMTV-Neu cells. The format is cell-based, mouse. The text has this: Doxorubicin induces T cell recruiting chemokines in p53 altered MMTV-Neu cells. FIG. 49.
Assay [2] deals with TP53 mutant mouse breast cancer cells lines. In words: Cytokine expression after doxorubicin in mouse breast cancer cell lines. Type of assay: cell-based.
Assay [3] has as its system melanoma cell lines. Briefly: Phospho-flow cytometry of melanoma cell lines after IFNγ stimulation. Type of assay: cell-based, human. To be noted: 15 min IFNγ; MHC-II(−) cell lines. On the procedure:
(§1) FIGS. 3A-F show characterization of MHC-II(+) melanoma cell lines. Melanoma cell lines were treated with IFNy for 24 h before collection and live-cell staining and flow cytometry analysis for (A) MHC-I (HLA-A/B/C), (B) MHC-II (HLA-DR), and (C) PD-L1. Bars represent mean ±S.E.M. for at least three experiments (D) Representative flow plots from (C). (E) Western blot analysis of melanoma cell lines after 24 or 48 h of IFNy stimulation. (F) Phosphorylation of STAT1 (top row) and STATS (bottom row) in melanoma cell lines at 15 min after IFNy stimulation. Histograms were colored according to the arcsinh transformed ratio or MFI medians relative to the table minimum value.
Phospho-flow cytometry. Melanoma cell lines were treated with Accutase™ (EMD Millipore, # SCR005) for 10 minutes at 37° C. to dissociate them from the plate. Dissociated cell lines were rested at 37° C. in a CO2 incubator for 30 minutes prior to stimulation. After resting, cells were stimulated by adding IFNy (Cell Signaling) at a final concentration of 100 ng/mL. During signaling, cells were kept in a 37° C. CO2 incubator. After 15 minutes of signaling, cells were fixed for 10 minutes at room temperature with a final concentration of 1.6% paraformaldehyde (Electron Microscopy Services). […] Samples were analyzed on a LSRII system (BD Biosciences).

Assay [4] relates to melanoma PDX tissue slices. In words: Ex vivo organotypic culture of PDX tumor slices with or without IFNγ. Type of assay: cell-based, human. Conditions: PT1 and PT2 PDX tissue slices, 24-48 h. The text has this: FIGS. 6A-D show Ex vivo culture of tumors derived from anti-PD-1-responding and non-responding patients identifies heterogeneity in interferon response. (A) Patient tumor blocks stained for HLA-DR (brown) and SOX10 (pink) at low (scale bar, 500 um) and high magnification (scale bar, […]); PT1: anti-PD-1 non-responder and PT2: anti-PD-1 responder. (B) Experimental schema. (C) Schema and images of PDX tissue sections (ex vivo organotypic culture). (D) Western blot analysis of tissue sections cultured in the presence or absence of IFNy for 24-48 h.
To test this hypothesis, patient-derived xenograft (PDX) models were utilized from the tumor resections of two melanoma patients who subsequently received anti-PD1 therapy; patient 1 (PT1; non-responder, 0% HLA-DR-positive, class II/III) and patient 2 (PT2; partial responder, heterogeneous 15% HLA-DR-positive, class Ib) (FIG. 6A). […] The resected tumors from PT1 and PT2 were serially transplanted to athymic nu/nu mice, which are highly deficient in functional T cells, ruling out a possible source of IFNγ (FIG. 6B). […] Thus, HLA-DR may be a marker of IFNγ activity in the microenvironment of some (but not all) tumors.
Cell and tumor culture. SKMEL-28 and WM115 cell lines were obtained from Dr. Kimberly Dahlman (Vanderbilt University), CHL-1 and HMCB melanoma cell lines were obtained from the laboratory of William Pao (Vanderbilt University). […]

For assay [5], the system named is melanoma cell lines. In words: Western blot of melanoma cell lines after IFNγ stimulation. The format is cell-based, human. On the procedure: as §1
Immunoblotting was performed as previously described^32 Briefly, cells were washed in cold phosphate-buffered saline, collected and lysed in 1×RIPA buffer (50 mM Tris (pH 7.4), 1% NP-40, 150 mM NaCl, 1 mM EDTA, 0.1% SDS, 0.25% sodium deoxycholate, 5 mM NaF, 5 mM Na3VO4, 10% glycerol, […] phenylmethyl-sulphonylfluoride and protease inhibitors) for 30 min on ice. Lysates were sonicated for 2-3 s to shear DNA and cleared by centrifugation at 13,200 r.p.m. for 15 min. Protein concentrations of the lysates were determined by BCA assay (Bio-Rad, Hercules, Calif.). Samples were separated by SDS-PAGE and transferred to nitrocellulose membrane. […]
A general note: In western blotting, separated proteins are transferred to a membrane and probed.

Assay [6] has as its system melanoma cell lines. In words: Flow cytometry of melanoma cell lines under basal and IFNγ-stimulated conditions. Type of assay: cell-based, human. On the procedure:
as §1
FIGS. 4A-D show graphs illustrating mean expression levels of MHC-I, MHC-II, and PD-L1 at baseline and after IFNy stimulation. Melanoma cell lines were treated with 100 ng IFNy for 24 hr (shown as percentage positive in FIGS. 2A-C) prior to harvest and live-cell staining and flow cytometry analysis for (A) MHC-FHLA-A/B/C, (B) MHC-II/HLA-DR, and (C) PD-L1. Bars represent mean fluorescence intensity ±SEM for 3 experiments. (D) Histograms of HLA-DR surface expression over an extended (24-72 hr) IFNy treatment, as assessed by flow cytometry.
Cell surface expression mirrored mRNA expression patterns; MHC-I (HLA-A/B/C) was expressed ubiquitously among all cell lines under both basal and stimulated conditions, while MHC-II (HLA-DR) was present only on the intermediate/Ib (SKMEL5 and SKMEL28) and high/Ia cell lines (WM115 and A375; FIGS. 3A-C and 4A-D). […] The high (Ia) WM115 cell line was essentially 100% positive for HLA-DR at both basal and stimulated conditions.
Standard Flow Cytometry. Flow cytometry was performed using the following antibodies: HLA-DR/PE-Cy7 (Biolegend, clone L243. 1:20). CD274/PD-L1/APC (Biolegend, clone 29E.2A3, 1:200) and HLA-A/B/C-Alexa Fluor488 (1:100, Biolegend, clone W6/32) mouse MHC-II (I-A/I-E 1:20 Biolegend, clone M5/114.15.2). DAPI was used as a viability dye. Samples were analyzed on an Aria III laser system (BD Biosciences)
Cell and tumor culture. […]
In general terms: In flow cytometry, cells or beads pass a laser one at a time.

Turning to `COc1cccc2c1C(=O)c1c(O)c3c(c(O)c1C2=O)C[C@@](O)(C(=O)CO)C[C@@H]3O[C@H]1C[C@H](N)[C@H](O)[C@H](C)O1` [Doxorubicin], the “T cell recruiting chemokines” value in assay [1] was “induces”. Besides, the cytokine expression entry in assay [2] is reported as “induce cytokine expression”.
As to “IFNγ: recombinant human IFNγ (R&D Systems), stimulation at 100 ng/mL”, the STATS activation entry with melanoma cell lines [3] was “preferentially activated”. Moreover, the HLA-DR upregulation entry in assay [4] is recorded as “only the PT2 PDX model (anti-PD-1 responder) upregulated HLA-DR”. Besides, the CIITA expression entry in the assay on melanoma cell lines [5] (24 or 48 h IFNγ) was “only induced in HLA-DR+ Ia/Ib cells”. For the same compound, the STAT1 activation entry in the assay with melanoma cell lines [5] (all cell lines) is “robustly activated”. Further, the HLA-DR expression result in the assay on melanoma cell lines [6] (CHL-1 or HMCB, 72 hrs of IFNγ treatment) is “No significant increase”; in the assay with melanoma cell lines [6] (SKMEL28 (intermediate/Ib)), “potently induced”. Also, in the assay on melanoma cell lines [6] (all cell lines tested), the PD-L1 expression entry was “potently induced; also recorded: significantly upregulated”.
